Data: patent publication US20020086278A1, “CHROMOGENIC MEDIA CONTAINING BLOOD OR HEMIN” (priority 1999, published 2002)

Assays:
Strep Grp G 27961 = test: Example 2: effect of incubation conditions on colony color formation; type: cell-based, Streptococcus group G; conditions: 0.004 g/plate, 24 h, CO2
S. agalactiae 4768 = test: as above; type: cell-based, Streptococcus agalactiae; conditions: 0.004 g/plate, 24 h, CO2
[1] = system: Staphylococcus aureus (stau); test: Example 3: colony color on chromogenic TSA II with 5% sheep blood (chromogen in medium); type: cell-based
Strep Grp G 12394 = test: Example 2: effect of incubation conditions on colony color formation; type: cell-based, Streptococcus group G; conditions: 0.004 g/plate, 24 h, CO2
Strep Grp C 12388 = test: as above; type: cell-based, Streptococcus group C; conditions: 0.004 g/plate, 24 h, CO2
Escherichia coli 25922 = test: Example 1: growth and colony color on plates surface-spread with chromogen; type: cell-based; conditions: E. coli 25922
S. agalactiae 13813 = test: Example 2: effect of incubation conditions on colony color formation; type: cell-based, Streptococcus agalactiae; conditions: 0.004 g/plate, 24 h, CO2
S. agalactiae BD11586 = test: as above; type: cell-based, Streptococcus agalactiae; conditions: Chocolate II Agar, 0.004 g/plate; 24 h, CO2
[2] = system: E. coli (non-O157) (esco); type: cell-based; conditions: chromogenic TSA II with 5% Sheep Blood, 0.1 g/l; 3 strains tested
S. agalactiae BD747 = test: Example 2: effect of incubation conditions on colony color formation; type: cell-based, Streptococcus agalactiae; conditions: 0.004 g/plate, 24 h, CO2
[3] = system: Citrobacter freundii (cifr); test: Example 3: colony color on chromogenic TSA II with 5% sheep blood (chromogen in medium); type: cell-based; conditions: for Colony Color: CO2, 18 h
S. agalactiae 6638 = test: Example 2: effect of incubation conditions on colony color formation; type: cell-based, Streptococcus agalactiae; conditions: 0.004 g/plate, 24 h, CO2
E. coli 25922 = test: as above; type: cell-based, Escherichia coli; conditions: 0.004 g/plate

O=C(O)[C@H]1O[C@@H](Oc2c[nH]c3ccc(Br)c(Cl)c23)[C@H](O)[C@@H](O)[C@@H]1O [X-Glucuro, X-Glucuronide]
Colony Color (Strep Grp G 27961; Chocolate II Agar): blue (d)
Colony Color (Strep Grp G 27961; TSA II 5% Sheep Blood): blue (d)
Colony Color (S. agalactiae 4768; Chocolate II Agar): blue (l)
Colony Color (S. agalactiae 4768; TSA II 5% Sheep Blood): blue (l)
Colony Color (Summary) ([1]; chromogenic TSA II with 5% Sheep Blood, 0.1 g/l, 5 strains tested): 0
Colony Color ([1]; stau 25923, CO2, 18 h): 0
Colony Color on Various Chromogenic TSA II with 5% Sheep Blood ([1]; stau t006, CO2, 18 h): 0
Colony Color on Various Chromogenic TSA II with 5% Sheep Blood ([1]; stau t007, CO2, 18 h): 0
Colony Color on Various Chromogenic TSA II with 5% Sheep Blood ([1]; stau t008, CO2, 18 h): 0
Colony Color on Various Chromogenic TSA II with 5% Sheep Blood ([1]; stau t009, CO2, 18 h): 0
Colony Color (Strep Grp G 12394; Chocolate II Agar): blue (d)
Colony Color (Strep Grp G 12394; TSA II 5% Sheep Blood): grey blue
Colony Color (Strep Grp C 12388; Chocolate II Agar): blue (d)
Colony Color (Strep Grp C 12388; TSA II 5% Sheep Blood): blue (d)
Color (Escherichia coli 25922; Choc II): blue
Substrates Producing Color (Escherichia coli 25922; Summary of Table I): X-Glucuro
Color (Escherichia coli 25922; TSA II 5SB): blue
Color (Escherichia coli 25922; TSA Plain): blue
Colony Color (S. agalactiae 13813; Chocolate II Agar): blue (d)
Colony Color (S. agalactiae 13813; TSA II 5% Sheep Blood): blue (d)
Colony Color (S. agalactiae BD11586): blue (vl)
Colony Color (Summary) [2]: +
Colony Color (S. agalactiae BD747; Chocolate II Agar): blue (l)
Colony Color (S. agalactiae BD747; TSA II 5% Sheep Blood): grey blue
Colony Color (Summary) ([3]; chromogenic TSA II with 5% Sheep Blood, 0.1 g/l, 2 strains tested): 0
Colony Color ([3]; cifr 8454): 0
Colony Color ([3]; cifr 33128): 0
Colony Color (S. agalactiae 6638; Chocolate II Agar): blue (m)
Colony Color (S. agalactiae 6638; TSA II 5% Sheep Blood): blue (m)
Colony Color (E. coli 25922; Chocolate II Agar, 24 h, air): blue (d)
Colony Color (E. coli 25922; TSA II 5% Sheep Blood, 24 h, air): blue (d)
Colony Color (E. coli 25922; TSA II 5% Sheep Blood, 5 d, ANA): blue (m)
Colony Color (E. coli 25922; TSA II 5% Sheep Blood, 5 d, MA): blue (m)
